Source: PMC6152226, “Composition and Antioxidant, Antienzymatic and Antimicrobial Activities of Volatile Molecules from Spanish Salvia lavandulifolia (Vahl) Essential Oils” (Molecules : A Journal of Synthetic Chemistry and Natural …, 2017)
In brackets after ≈: the same amount, converted by molar mass. Counter-ions that a name gives are not always drawn. Like-named read-outs stand apart in the source and are kept apart here.

Key:
[1] = tested on: Staphylococcus aureus ATCC 6538; assay: Broth microdilution MIC and MBC; format: cell-based
Method: (§1) The following test microorganisms used in this work were acquired from Sigma-Aldrich: Pseudomonas aeruginosa ATCC 9027, Escherichia coli ATCC 8739, Staphylococcus aureus ATCC 6538, and Candida albicans ATCC 10231. The stock cultures were preserved in TSB or YPD with 15% glycerol, for bacteria and yeast cells, respectively, at −80 °C. Isolated colonies from an 18- to 24-h agar plate were transferred to MHB for bacteria and RPMI-1640 for C. albicans.
(§2) MIC were determined using the broth microdilution method in 96-well microplates, according to the M07-A10 [69] standard for bacteria and the M27-A3 [70] for Candida. Briefly, two-fold dilutions of a 40 µL/mL SlEOs were prepared to obtain a final concentration range of 0.08–20 µL/mL with 0.5% Tween®80 and 2.5% DMSO. The antimicrobial activities of main compounds were also tested in the concentration range of 0.12–15 mM with 0.5% Tween®80 and 2.5% DMSO as solvent. The final strain concentration was 5 × 10^5 CFU/mL in MHB for the bacteria and 0.5−2.5 × 10^3 in RPMI-1640 for the yeast. These plates were incubated for 24 h for bacteria and 48 h for Candida, both at 35 ± 1 °C, under aerobic conditions on a plate shaker at 100 rpm. Streptomycin (0.06–8.00 µg/mL) and fluconazole (0.13–16 µg/mL) were used as reference antibacterial and antifungal compound, respectively. […] MIC is defined as the lowest concentration of EO or individual compound with no visible growth of microorganisms, at the end of the incubation period. […] All determinations were carried out in triplicate.

[2] = tested on: Escherichia coli ATCC 8739; assay: Broth microdilution MIC and MBC; format: cell-based
Method: as §1, §2

DPPH radical method = details: individual compounds; maximum assay concentration 100 mM
Method: (§3) Five antioxidant methods were performed with SlEOs and their main individual compounds in triplicate. In the oxygen radical absorbance capacity (ORAC) assay, peroxyl radicals are produced by 2,2′-Azobis(2-methylpropionamidine) dihydrochloride (AAPH), which reacts with fluorescein giving a non-fluorescent compound [61]. The antioxidants are able to scavenge these peroxyl radicals. Trolox was used as the reference antioxidant. The 2,2-diphenyl-1-picrylhydrazyl (DPPH) and 2,2′-azino-bis(3-ethylbenzothiazoline-6-sulphonic acid) (ABTS) methods measure the bleaching produced by the reduction of the coloured DPPH and ABTS radicals. Trolox was used as the reference antioxidant. The RdP method measure the ability to reduce ferric ions, according to the method of Oyaizu. Ascorbic acid was the reference antioxidant used in this method. The ChP method measured the ability to chelate Fe^2+ ion, following the method of Miguel et al.. EDTA was used as reference antioxidant. The SlEOs were diluted in 100% ethanol in the DPPH, ABTS, RdP and ChP methods, whereas in the ORAC method, SlEOs were diluted in 15% ethanol to obtain a final concentration of 5% ethanol in the reaction medium. All measurements were made at the end-point of the reaction, except in the ORAC method (Figure S5).

[3] = Chelating power (ChP) method; details: individual compounds; maximum assay concentration 100 mM
Method: as §3

ABTS radical method = details: individual compounds; maximum assay concentration 100 mM
Method: as §3

[4] = Reducing power (RdP) method; details: individual compounds; maximum assay concentration 100 mM
Method: as §3

[5] = Oxygen radical absorbance capacity (ORAC) assay; details: individual compounds; maximum assay concentration 100 mM
Method: as §3

[6] = tested on: Candida albicans ATCC 10231; assay: Broth microdilution MIC and MFC; format: cell-based
Method: as §1, §2

SMILES	MIC ([1]; ATCC6538, 24 h, read-out: MIC) [µg/mL]	MBC ([1]; ATCC6538, read-out: MBC) [µg/mL]	MIC ([2]; ATCC8739, 24 h, read-out: MIC) [µg/mL]	MBC ([2]; ATCC8739, read-out: MBC) [µg/mL]	DPPH (DPPH radical method)	ChP [3]	ABTS (ABTS radical method)	RdP [4]	ORAC [5]	MIC ([6]; ATCC10231, 48 h, read-out: MIC) [µg/mL]	MFC ([6]; ATCC10231, read-out: MFC) [µg/mL]	other results
[H]/N=C(/N)N[C@H]1[C@H](O)[C@@H](O)[C@H](O[C@@H]2O[C@@H](C)[C@](O)(C=O)[C@H]2O[C@@H]2O[C@@H](CO)[C@H](O)[C@@H](O)[C@@H]2NC)[C@@H](N/C(N)=N\[H])[C@@H]1O [Streptomycin sulfate, reference compound]	1	1	1	1	–	–	–	–	–	–	–	–
CC1=CC=C(C(C)C)CC1 [α-Terpinene]	–	–	–	–	0.3 ± 0.0 µmol TE/mmol X	62.2 ± 4.7 µmol EDTAE/mmol X	4.0 ± 0.2 µmol TE/mmol X	1.9 ± 0.1 µmol AAE/mmol X	N/D (Activity lower than 0.05 units at a maximum assay concentration of 100 mM)	–	–	–
C=C1CCC2(C(C)C)CC12 (stereo not drawn) [Sabinene]	> 2000	> 2000	> 2000	> 2000	–	–	–	–	–	> 2000	> 2000	–
C=C1CCC2CC1C2(C)C (stereo not drawn) [β-Pinene]	> 2000	> 2000	> 2000	> 2000	N/D (Activity lower than 0.05 units at a maximum assay concentration of 100 mM)	1.8 ± 0.1 µmol EDTAE/mmol X	0.1 ± 0.0 µmol TE/mmol X	N/D (Activity lower than 0.05 units at a maximum assay concentration of 100 mM)	26.6 ± 1.6 µmol TE/mmol X	> 2000	> 2000	–
OC(Cn1cncn1)(Cn1cncn1)c1ccc(F)cc1F [Fluconazole, reference compound]	–	–	–	–	–	–	–	–	–	4 (≈ 0.0131 mM)	4 (≈ 0.0131 mM)	–
CC1=CCC(C(C)C)=CC1 [γ-Terpinene]	–	–	–	–	0.3 ± 0.0 µmol TE/mmol X	0.3 ± 0.0 µmol EDTAE/mmol X	2.5 ± 0.1 µmol TE/mmol X	0.3 ± 0.0 µmol AAE/mmol X	171.4 ± 10.3 µmol TE/mmol X	–	–	–
CC(C)C12CCC(C)(O)C1C2 (stereo not drawn) [Sabinene hydrate]	–	–	–	–	N/D (Activity lower than 0.05 units at a maximum assay concentration of 100 mM)	6.7 ± 0.6 µmol EDTAE/mmol X	0.5 ± 0.0 µmol TE/mmol X	N/D (Activity lower than 0.05 units at a maximum assay concentration of 100 mM)	N/D (Activity lower than 0.05 units at a maximum assay concentration of 100 mM)	–	–	–
Cc1ccc(C(C)C)cc1 [p-Cymene]	> 2000	> 2000	1000 (≈ 7.45 mM)	2000 (≈ 14.9 mM)	N/D (Activity lower than 0.05 units at a maximum assay concentration of 100 mM)	20.1 ± 1.6 µmol EDTAE/mmol X	0.1 ± 0.0 µmol TE/mmol X	N/D (Activity lower than 0.05 units at a maximum assay concentration of 100 mM)	N/D (Activity lower than 0.05 units at a maximum assay concentration of 100 mM)	500 (≈ 3.73 mM)	500 (≈ 3.73 mM)	–
CC1(C)C2CCC1(C)C(O)C2 (stereo not drawn) [Borneol]	300 (≈ 1.94 mM)	300 (≈ 1.94 mM)	1100 (≈ 7.13 mM)	1100 (≈ 7.13 mM)	N/D (Activity lower than 0.05 units at a maximum assay concentration of 100 mM)	N/D (Activity lower than 0.05 units at a maximum assay concentration of 100 mM)	N/D (Activity lower than 0.05 units at a maximum assay concentration of 100 mM)	N/D (Activity lower than 0.05 units at a maximum assay concentration of 100 mM)	N/D (Activity lower than 0.05 units at a maximum assay concentration of 100 mM)	600 (≈ 3.89 mM)	600 (≈ 3.89 mM)	–
C=CC(=C)CCC=C(C)C [Myrcene]	> 2100	> 2100	> 2100	> 2100	N/D (Activity lower than 0.05 units at a maximum assay concentration of 100 mM)	2.5 ± 0.2 µmol EDTAE/mmol X	N/D (Activity lower than 0.05 units at a maximum assay concentration of 100 mM)	N/D (Activity lower than 0.05 units at a maximum assay concentration of 100 mM)	N/D (Activity lower than 0.05 units at a maximum assay concentration of 100 mM)	> 2100	> 2100	–
C/C1=C\CC/C(C)=C/CC(C)(C)/C=C/C1 [α-Humulene]	–	–	–	–	–	–	–	–	–	–	–	MBC [1]: 3000 µg/mL (≈ 14.7 mM); MIC ([1]; 24 h): 1600 µg/mL (≈ 7.83 mM); MBC [2]: >3000 µg/mL; MIC ([2]; 24 h): >3000 µg/mL; MFC [6]: >3000 µg/mL; MIC ([6]; 48 h): >3000 µg/mL
C=CC(C)(CCC=C(C)C)OC(C)=O (stereo not drawn) [Linalyl acetate]	–	–	–	–	N/D (Activity lower than 0.05 units at a maximum assay concentration of 100 mM)	27.4 ± 2.1 µmol EDTAE/mmol X	0.1 ± 0.0 µmol TE/mmol X	N/D (Activity lower than 0.05 units at a maximum assay concentration of 100 mM)	207.1 ± 13.2 µmol TE/mmol X	–	–	MBC ([1]; ATCC6538): > 3000 µg/mL; MIC ([1]; ATCC6538, 24 h): 3000 µg/mL; MBC ([2]; ATCC8739): > 3000 µg/mL; MIC ([2]; ATCC8739, 24 h): > 3000 µg/mL; MFC ([6]; ATCC10231): > 3000 µg/mL; MIC ([6]; ATCC10231, 48 h): > 3000 µg/mL
C=C1CC/C=C(\C)CC[C@@H]2[C@@H]1CC2(C)C [β-Caryophyllene, (E)-β-Caryophyllene]	> 3100	> 3100	> 3100	> 3100	N/D (Activity lower than 0.05 units at a maximum assay concentration of 100 mM)	7.1 ± 0.5 µmol EDTAE/mmol X	N/D (Activity lower than 0.05 units at a maximum assay concentration of 100 mM)	N/D (Activity lower than 0.05 units at a maximum assay concentration of 100 mM)	394.7 ± 14.5 µmol TE/mmol X	> 3100	> 3100	–
